The values that follow come from ChEMBL document CHEMBL1142861, “Septocylindrins A and B: peptaibols produced by the terrestrial fungus Septocylindrium sp. LL-Z1518” (2007).

Type in all cases: functional
The subject of assay [1] is Staphylococcus aureus. In words: Antimicrobial activity against wild type Staphylococcus aureus by broth dilution method. (In general: Dilution methods test growth across graded concentrations, often in twofold steps.)
In assay [2] the test system is Staphylococcus aureus. In words: Antimicrobial activity against methicillin-resistant Staphylococcus aureus by broth dilution method.
The test system of assay [3] is Enterococcus faecium. The experiment in a line: Antimicrobial activity against vancomycin-resistant Enterococcus faecium by broth dilution method.
In assay [4] the test system is Escherichia coli. The experiment in a line: Antimicrobial activity against membrane permeability mutant Escherichia coli imp by broth dilution method.
Assay [5] relates to Escherichia coli. In words: Antimicrobial activity against wild type Escherichia coli by broth dilution method.
Assay [6] has as its system Candida albicans. The experiment in a line: Antimicrobial activity against Candida albicans by broth dilution method.

SMILES strings stand for the structures. In brackets after ≈: the same amount, converted by molar mass. Non-standard residues stand in square brackets, D forms with d. Residues, ends and D or L forms follow the SMILES beside them. *: point of attachment. X1 = OCCNC[C@H](Cc1ccccc1)N*; Aib = CC(C)(N)C(=O)O

Broadly, the MIC is the lowest concentration found to suppress growth.

As for `CC(=O)NC(C)(C)C(=O)N1CCC[C@H]1C(=O)NC(C)(C)C(=O)N[C@@H](C)C(=O)NC(C)(C)C(=O)N[C@@H](C)C(=O)N[C@@H](CCC(N)=O)C(=O)NC(C)(C)C(=O)N[C@H](C(=O)NC(C)(C)C(=O)NCC(=O)N[C@@H](CC(C)C)C(=O)NC(C)(C)C(=O)N1CCC[C@H]1C(=O)N[C@H](C(=O)NC(C)(C)C(=O)NC(C)(C)C(=O)N[C@@H](CCC(=O)O)C(=O)N[C@@H](CCC(N)=O)C(=O)N[C@H](CNCCO)Cc1ccccc1)C(C)C)C(C)C` [septocylindrin A] (Ac-[Aib]P[Aib]A[Aib]AQ[Aib]V[Aib]GL[Aib]PV[Aib][Aib]EQ-X1), the MIC in assay [1] was 32 µg/mL (≈ 15.9 µM); in assay [2], 128 µg/mL (≈ 63.8 µM); in assay [3] it was 16 µg/mL (≈ 7.97 µM); in assay [4], 32 µg/mL (≈ 15.9 µM); in assay [5], more than 128 µg/mL; in assay [6] it was 32 µg/mL (≈ 15.9 µM).

For the compound `CC(=O)NC(C)(C)C(=O)N1CCC[C@H]1C(=O)NC(C)(C)C(=O)N[C@@H](C)C(=O)NC(C)(C)C(=O)N[C@@H](C)C(=O)N[C@@H](CCC(N)=O)C(=O)NC(C)(C)C(=O)N[C@H](C(=O)NC(C)(C)C(=O)NCC(=O)N[C@@H](CC(C)C)C(=O)NC(C)(C)C(=O)N1CCC[C@H]1C(=O)N[C@H](C(=O)NC(C)(C)C(=O)NC(C)(C)C(=O)N[C@@H](CCC(N)=O)C(=O)N[C@@H](CCC(N)=O)C(=O)N[C@H](CNCCO)Cc1ccccc1)C(C)C)C(C)C` [septocylindrin B] (Ac-[Aib]P[Aib]A[Aib]AQ[Aib]V[Aib]GL[Aib]PV[Aib][Aib]QQ-X1), the MIC in assay [1] is 8 µg/mL (≈ 3.99 µM); in assay [2] it was 16 µg/mL (≈ 7.97 µM); in assay [3], 8 µg/mL (≈ 3.99 µM); in assay [4] it was 8 µg/mL (≈ 3.99 µM); in assay [5], more than 128 µg/mL; in assay [6], 16 µg/mL (≈ 7.97 µM).
